Tested on: 958667-338-R-J2-PDC tumor spheroids viability
Assay: Anticancer human tumor 958667-338-R-J2-PDC patient-derived colon adenocarcinoma cell line growth inhibition [PI3K]
Settings: spheroids with HUVEC and MSC; for IC50: curve of first compound; for viability, T/C: stronger effect = lower value
Procedure, shortened: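 Tumor cells grown as multi-cell spheroids with HUVEC endothelial cells and MSC fibroblast-like stroma were treated with targeted agents combined with inavolisib, alpelisib, duvelisib or copanlisib. Doses fell in half-log steps from near clinical Cmax, else from 10 microM. Viability was measured.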

[1] = second compound 0.0316 µM, first compound 0.0316 µM
[2] = second compound 0.0316 µM, first compound 0.1 µM
[3] = second compound 0.0316 µM, first compound 0.316 µM
[4] = second compound 0.0316 µM, first compound 1 µM
[5] = second compound 0.0316 µM, first compound 3.16 µM
[6] = second compound 0.0316 µM, first compound 10 µM
[7] = second compound 0.1 µM, first compound 0.0316 µM
[8] = second compound 0.1 µM, first compound 0.1 µM
[9] = second compound 0.1 µM, first compound 0.316 µM
[10] = second compound 0.1 µM, first compound 1 µM
[11] = second compound 0.1 µM, first compound 3.16 µM
[12] = second compound 0.1 µM, first compound 10 µM
[13] = second compound 0.316 µM, first compound 0.0316 µM
[14] = second compound 0.316 µM, first compound 0.1 µM
[15] = second compound 0.316 µM, first compound 0.316 µM
[16] = second compound 0.316 µM, first compound 1 µM
[17] = second compound 0.316 µM, first compound 3.16 µM
[18] = second compound 0.316 µM, first compound 10 µM
[19] = second compound 1 µM, first compound 0.0316 µM
[20] = second compound 1 µM, first compound 0.1 µM
[21] = second compound 1 µM, first compound 0.316 µM
[22] = second compound 1 µM, first compound 1 µM
[23] = second compound 1 µM, first compound 3.16 µM
[24] = second compound 1 µM, first compound 10 µM
[25] = second compound 3.16 µM, first compound 0.0316 µM
[26] = second compound 3.16 µM, first compound 0.1 µM
[27] = second compound 3.16 µM, first compound 0.316 µM
[28] = second compound 3.16 µM, first compound 1 µM
[29] = second compound 3.16 µM, first compound 3.16 µM
[30] = second compound 3.16 µM, first compound 10 µM
[31] = second compound 10 µM, first compound 0.0316 µM
[32] = second compound 10 µM, first compound 0.1 µM
[33] = second compound 10 µM, first compound 0.316 µM
[34] = second compound 10 µM, first compound 1 µM
[35] = second compound 10 µM, first compound 3.16 µM
[36] = second compound 10 µM, first compound 10 µM
[37] = second compound 0.0316 µM, first compound 0.00316 µM
[38] = second compound 0.0316 µM, first compound 0.01 µM
[39] = second compound 0.1 µM, first compound 0.00316 µM
[40] = second compound 0.1 µM, first compound 0.01 µM
[41] = second compound 0.316 µM, first compound 0.00316 µM
[42] = second compound 0.316 µM, first compound 0.01 µM
[43] = second compound 1 µM, first compound 0.00316 µM
[44] = second compound 1 µM, first compound 0.01 µM
[45] = second compound 3.16 µM, first compound 0.00316 µM
[46] = second compound 3.16 µM, first compound 0.01 µM
[47] = second compound 10 µM, first compound 0.00316 µM
[48] = second compound 10 µM, first compound 0.01 µM
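Further: spheroids exposed to compounds for seven days before readout.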

Work on `CC(C)NCC(C(=O)N1CCN(c2ncnc3c2C(C)CC3O)CC1)c1ccc(Cl)cc1` (stereo not drawn) + Cc1nc(NC(=O)N2CCCC2C(N)=O)sc1-c1ccnc(C(C)(C)C(F)(F)F)c1 yielded an IC50 (second compound 0.0316 µM) of over 10 µM, an IC50 (second compound 0.1 µM) of over 10 µM and an IC50 (second compound 0.316 µM) of over 10 µM. The IC50 (second compound 1 µM) was over 10 µM, the IC50 (second compound 3.16 µM) was 8.17 µM and the IC50 (second compound 10 µM) was 2.36 µM. It also gave a viability, T/C [1] of 108%, a viability, T/C [2] of 99.3% and a viability, T/C [3] of 96.3%. It also gave a viability, T/C [4] of 104%, a viability, T/C [5] of 91.8% and a viability, T/C [6] of 64.6%. It also gave a viability, T/C [7] of 99.4%, a viability, T/C [8] of 110% and a viability, T/C [9] of 95.6%. For the same molecule, the viability, T/C [10] was 102%, the viability, T/C [11] was 102% and the viability, T/C [12] was 60.7%. It also gave a viability, T/C [13] of 90.7%, a viability, T/C [14] of 103% and a viability, T/C [15] of 104%. The viability, T/C [16] was 85.2%, the viability, T/C [17] was 86.9% and the viability, T/C [18] was 62.1%. It also gave a viability, T/C [19] of 107%, a viability, T/C [20] of 74.2% and a viability, T/C [21] of 87.4%. The viability, T/C [22] was 75.5%, the viability, T/C [23] was 89.9% and the viability, T/C [24] was 73.5%. For the same molecule, the viability, T/C [25] was 74.7%, the viability, T/C [26] was 68.3% and the viability, T/C [27] was 71.8%. For the same molecule, the viability, T/C [28] was 76.7%, the viability, T/C [29] was 68.5% and the viability, T/C [30] was 45.9%. It also gave a viability, T/C [31] of 57.8%, a viability, T/C [32] of 66.5% and a viability, T/C [33] of 57.2%. It also gave a viability, T/C [34] of 62.5%, a viability, T/C [35] of 46.2% and a viability, T/C [36] of 35.9%.

`CCN1CCN(Cc2ccc(Nc3ncc(F)c(-c4cc(F)c5nc(C)n(C(C)C)c5c4)n3)nc2)CC1` + Cc1nc(NC(=O)N2CCCC2C(N)=O)sc1-c1ccnc(C(C)(C)C(F)(F)F)c1 gave an IC50 (second compound 0.0316 µM) of over 1 µM, an IC50 (second compound 0.1 µM) of over 1 µM and an IC50 (second compound 0.316 µM) of over 1 µM. For the same molecule, the IC50 (second compound 1 µM) was 0.684 µM, the IC50 (second compound 3.16 µM) was 0.0294 µM and the IC50 (second compound 10 µM) was 0.0305 µM. For the same molecule, the viability, T/C [37] was 96.6%, the viability, T/C [38] was 108% and the viability, T/C [1] was 93.5%. The viability, T/C [2] was 81.5%, the viability, T/C [3] was 64.7% and the viability, T/C [4] was 73.9%. It also gave a viability, T/C [39] of 97.6%, a viability, T/C [40] of 112% and a viability, T/C [7] of 85%. For the same molecule, the viability, T/C [8] was 77.1%, the viability, T/C [9] was 86.1% and the viability, T/C [10] was 70.4%. It also gave a viability, T/C [41] of 85.5%, a viability, T/C [42] of 86% and a viability, T/C [13] of 79.7%. The viability, T/C [14] was 84.6%, the viability, T/C [15] was 68% and the viability, T/C [16] was 61.8%. For the same molecule, the viability, T/C [43] was 94.5%, the viability, T/C [44] was 67.4% and the viability, T/C [19] was 72.8%. It also gave a viability, T/C [20] of 59.7%, a viability, T/C [21] of 57.4% and a viability, T/C [22] of 45.5%. It also gave a viability, T/C [45] of 66.4%, a viability, T/C [46] of 86.1% and a viability, T/C [25] of 48.1%. For the same molecule, the viability, T/C [26] was 47.1%, the viability, T/C [27] was 47.9% and the viability, T/C [28] was 35.8%. It also gave a viability, T/C [47] of 54.2%, a viability, T/C [48] of 60.8% and a viability, T/C [31] of 44.7%. It also gave a viability, T/C [32] of 46.5%, a viability, T/C [33] of 36.5% and a viability, T/C [34] of 31.3%.

Work on `C[C@@H](NC(=O)c1ncnc(N)c1Cl)c1ncc(C(=O)Nc2cc(C(F)(F)F)c(Cl)cn2)s1` + Cc1nc(NC(=O)N2CCCC2C(N)=O)sc1-c1ccnc(C(C)(C)C(F)(F)F)c1 yielded an IC50 (second compound 0.0316 µM) of over 10 µM, an IC50 (second compound 0.1 µM) of over 10 µM and an IC50 (second compound 0.316 µM) of over 10 µM. The IC50 (second compound 1 µM) was over 10 µM, the IC50 (second compound 3.16 µM) was over 10 µM and the IC50 (second compound 10 µM) was 3.29 µM. For the same molecule, the viability, T/C [1] was 97.2%, the viability, T/C [2] was 121% and the viability, T/C [3] was 115%. The viability, T/C [4] was 88.6%, the viability, T/C [5] was 87.8% and the viability, T/C [6] was 89.2%. It also gave a viability, T/C [7] of 119%, a viability, T/C [8] of 126% and a viability, T/C [9] of 113%. It also gave a viability, T/C [10] of 108%, a viability, T/C [11] of 107% and a viability, T/C [12] of 94.9%. The viability, T/C [13] was 101%, the viability, T/C [14] was 85% and the viability, T/C [15] was 106%. For the same molecule, the viability, T/C [16] was 111%, the viability, T/C [17] was 94.7% and the viability, T/C [18] was 90.2%. For the same molecule, the viability, T/C [19] was 87%, the viability, T/C [20] was 95.8% and the viability, T/C [21] was 116%. It also gave a viability, T/C [22] of 94.9%, a viability, T/C [23] of 81.6% and a viability, T/C [24] of 75.7%. The viability, T/C [25] was 77.9%, the viability, T/C [26] was 86.9% and the viability, T/C [27] was 82.8%. For the same molecule, the viability, T/C [28] was 90.4%, the viability, T/C [29] was 89.8% and the viability, T/C [30] was 57.9%. The viability, T/C [31] was 79.4%, the viability, T/C [32] was 82.5% and the viability, T/C [33] was 76.6%. For the same molecule, the viability, T/C [34] was 71.3%, the viability, T/C [35] was 50.7% and the viability, T/C [36] was 28.2%.

`Cn1ncnc1[C@H]1c2n[nH]c(=O)c3cc(F)cc(c23)N[C@@H]1c1ccc(F)cc1` + Cc1nc(NC(=O)N2CCCC2C(N)=O)sc1-c1ccnc(C(C)(C)C(F)(F)F)c1 showed an IC50 (second compound 0.0316 µM) of over 0.1 µM, an IC50 (second compound 0.1 µM) of over 0.1 µM and an IC50 (second compound 0.316 µM) of over 0.1 µM. It also gave an IC50 (second compound 1 µM) of over 0.1 µM, an IC50 (second compound 3.16 µM) of over 0.1 µM and an IC50 (second compound 10 µM) of over 0.1 µM. For the same molecule, the viability, T/C (second compound 0.0316 µM, first compound 0.000316 µM) was 98.7%, the viability, T/C (second compound 0.0316 µM, first compound 0.001 µM) was 92% and the viability, T/C [37] was 113%. The viability, T/C [38] was 106%, the viability, T/C [1] was 94.5% and the viability, T/C [2] was 107%. It also gave a viability, T/C (second compound 0.1 µM, first compound 0.000316 µM) of 98%, a viability, T/C (second compound 0.1 µM, first compound 0.001 µM) of 96.7% and a viability, T/C [39] of 83.2%. The viability, T/C [40] was 101%, the viability, T/C [7] was 91.7% and the viability, T/C [8] was 93%. The viability, T/C (second compound 0.316 µM, first compound 0.000316 µM) was 81.4%, the viability, T/C (second compound 0.316 µM, first compound 0.001 µM) was 109% and the viability, T/C [41] was 82.4%. It also gave a viability, T/C [42] of 102%, a viability, T/C [13] of 87% and a viability, T/C [14] of 71.2%. It also gave a viability, T/C (second compound 1 µM, first compound 0.000316 µM) of 83.2%, a viability, T/C (second compound 1 µM, first compound 0.001 µM) of 86.4% and a viability, T/C [43] of 101%. For the same molecule, the viability, T/C [44] was 82.6%, the viability, T/C [19] was 78.4% and the viability, T/C [20] was 79.5%. It also gave a viability, T/C (second compound 3.16 µM, first compound 0.000316 µM) of 78.4%, a viability, T/C (second compound 3.16 µM, first compound 0.001 µM) of 78.7% and a viability, T/C [45] of 85.8%. It also gave a viability, T/C [46] of 72.5%, a viability, T/C [25] of 82.8% and a viability, T/C [26] of 91.3%. It also gave a viability, T/C (second compound 10 µM, first compound 0.000316 µM) of 57.9%, a viability, T/C (second compound 10 µM, first compound 0.001 µM) of 64.8% and a viability, T/C [47] of 73.3%. It also gave a viability, T/C [48] of 60.8%, a viability, T/C [31] of 72.7% and a viability, T/C [32] of 60.8%.

— PubChem BioAssay AID1963963 (Molecular Pharmacology Branch, DTP, NCI, 2024)
